According to patent US7491836B2, “Non-ionic surfactants for poorly soluble molecules” (AstraZeneca AB, priority 2003, dated 2009):
Converted amounts (≈) assume the structure as drawn. Like-named read-outs stand apart in the source and are kept apart here.

How the values were obtained:
CACO-2 cells = assay: Epithelial cell interaction monitored as transepithelial electrical resistance (TEER); type: cell-based
Method: Possible interaction with epithelial cells in the form of CACO-2 cells monitored as transepitheliar electrical resistance (TEER) was studied for some of the compounds. In short, after an equilibration time of 60 min the buffer solution at the donor side was exchanged with a buffer solution containing a certain concentration of the surfactant and TEER was then measured after 8 hours.

[1] = system: dog blood erythrocyte suspension; assay: Haemolytic activity, static method (erythrocyte suspension incubated with surfactant, haemoglobin analysed); type: cell-based; conditions: for Hemolysis: 40 min at 37° C.
Method: A static method for evaluating the haemolytic activity of compounds was used. In short, dog blood is processed to an erythrocyte suspension, which is then incubated (40 min at 37° C.) with varying concentrations of a surfactant. The incubation is terminated by centrifugation after which the plasma, now containing different amounts of haemoglobin, can be removed and analysed. The results obtained for various MePEG- and PEG mono-12-acyloxy-stearate esters compared with a reference substance (Tween 80), are summarized in tables 3-4.

physchem = assay: physchem
Method: The solubilization capacity of the compounds of the invention and compounds of prior art for two poorly soluble (i.e. less than sparingly soluble) drug molecules, felodipine and griseofulvin, were tested. […] Sci., 1998, 87(2), 200-8]. The solubilization capacity for each surfactant was determined from the slope of the curve in a graph where the felodipine/griseofulvin concentration was plotted against the surfactant concentration at surfactant concentrations above CMC (critical micellar concentration).

[2] = cited from earlier work

Compound	TEER after 8 hours exposure (CACO-2 cells; surfactant conc 10 mM)	TEER after 8 hours exposure (CACO-2 cells; surfactant conc 50 mM)	TEER after 8 hours exposure (CACO-2 cells; surfactant conc 0.1 mM)	TEER after 8 hours exposure (CACO-2 cells; surfactant conc 1 mM)	other results
MePEG2000 12-palmitoyloxy-stearate	96%	99%			
CCCCCCC(CCCCCCCCCCC(=O)OCCOCCOCCOCCOCCOCCOCCOCCOCCOCCOCCOCCOCCO)OC(=O)CCCCC (stereo not shown) [PEG600 mono-12-hexanoyloxy-stearate]	39%	37%	89%	43%	Hemolysis ([1]; surfactant conc 0.6 mM): 83%; Hemolysis ([1]; surfactant conc 0.7 mM): 92%
MePEG2000 12-stearoyloxy-stearate	98%	96%			
PEG1500 mono-12-stearoyloxy-stearate	103%	108%	98%	104%	
CCCCCCCC(=O)OC(CCCCCC)CCCCCCCCCCC(=O)OCCOCCOCCOCCOCCOCCOCCOCCOCCOCCOCCOCCOCCO (stereo not shown) [PEG600 mono-12-octanoyloxy-stearate]					Hemolysis ([1]; surfactant conc 0.6 mM): 88%; Hemolysis ([1]; surfactant conc 0.7 mM): 102%
MePEG1200 12-palmitoyloxy-stearate	94%	103%			
PEG1500 mono-12-myristoyloxy-stearate	104%	98%	104%	100%	
CCOC(=O)C1=C(C)NC(C)=C(C(=O)OC)C1c1cccc(Cl)c1Cl (stereo not shown) [felodipine]					solubility in water (physchem): 2.1 µM (≈ 0.807 µg/mL); solubility in water [2]: 0.8 µg/mL (≈ 2.08 µM)
PEG1500 mono-12-lauroyloxy-stearate	93%	37%	100%	96%	change in TEER / interaction with epithelial cells (in words) (CACO-2 cells; after 8 hours): substantial decrease in TEER
MePEG1200 12-stearoyloxy-stearate	101%	71%			
PEG1500 mono-12-palmitoyloxy-stearate	103%	101%	98%	105%	
COC1=CC(=O)C[C@@H](C)[C@]12Oc1c(Cl)c(OC)cc(OC)c1C2=O [griseofulvin]					solubility (physchem; water): ~23 µM (≈ 8.11 µg/mL); solubility in water [2]: approximately 8.1 μg/ml
PEG1500 mono-12-oleoyloxy-stearate	95%	108%	105%	104%	
CCCCCCC(O)CCCCCCCCCCC(=O)OCCOCCOCCOCCOCCOCCOCCOCCOCCOCCOCCOCCOC (stereo not shown) [MePEG550 12-hydroxystearate]					haemolysis (in words) ([1]; at 1 mM): profound hemolysis; Hemolysis ([1]; surfactant conc 1.0 mM): 25%; Hemolysis ([1]; surfactant conc 5.0 mM): 86%; Hemolysis ([1]; surfactant conc 10 mM): 79%; concentration causing total haemolysis ([1]; text summary of Tables 3-4): 5000 µM
